Measured values taken from paper PMC5607274, “An iterative compound screening contest method for identifying target protein inhibitors using the tyrosine-protein kinase Yes” (Scientific Reports, 2017).

Molecular target: T1, human recombinant Yes [a.a. 2–543 (end)] (Homo sapiens, UniProt P07947)
T1 construct: human recombinant Yes [a.a; 2–543 (end)]; purchased BPS Bioscience 40488
Assay: ADP-Glo kinase assay, inhibition rates of Yes phosphorylation activity (first and second screening)
Type: biochemical
Details: first screening; mean of n = 4 wells; 10 μmol L−1 compound
Method in brief: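 ADP-Glo luminescence measured inhibition of human recombinant Yes (a.a. 2–543) phosphorylation activity. In the first screen, each compound ran in 4 wells and inhibition rates were averaged. The second screen retested hits as compounds dissolved from fresh powder.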

T1 sequence (P07947 2-543): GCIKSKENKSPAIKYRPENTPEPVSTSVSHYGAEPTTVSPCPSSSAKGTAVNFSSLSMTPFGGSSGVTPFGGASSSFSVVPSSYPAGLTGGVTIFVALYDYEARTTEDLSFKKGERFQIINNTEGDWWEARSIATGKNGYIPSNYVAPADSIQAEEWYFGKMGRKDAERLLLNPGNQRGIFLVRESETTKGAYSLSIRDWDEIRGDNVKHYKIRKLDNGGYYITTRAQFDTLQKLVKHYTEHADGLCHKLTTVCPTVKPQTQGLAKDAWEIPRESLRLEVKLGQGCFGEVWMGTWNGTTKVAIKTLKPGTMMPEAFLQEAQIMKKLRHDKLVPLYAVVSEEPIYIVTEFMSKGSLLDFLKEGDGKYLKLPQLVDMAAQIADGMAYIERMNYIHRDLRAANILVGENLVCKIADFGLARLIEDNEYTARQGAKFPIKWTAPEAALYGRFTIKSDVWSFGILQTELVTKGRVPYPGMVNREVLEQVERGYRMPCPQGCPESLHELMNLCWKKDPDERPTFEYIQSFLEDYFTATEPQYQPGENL

First screening IR (inhibition rate) | SMILES
14% | Cc1ccccc1-n1c(SCC(=O)c2cc(C)n(CC3CCCO3)c2C)nnc1N1CCOCC1 (stereo not shown) [Compound Z92475228]
3% | Cc1cccc(-n2c(SCC(=O)c3cc(C)n(CC4CCCO4)c3C)nnc2N2CCOCC2)c1 (stereo not shown) [Compound Z92479374]
10% | O=C(CSc1nnc(-c2cccnc2)n1C1CC1)Nc1nc(-c2ccc(F)cc2)cs1 [Compound Z92534919]
-4% | Cc1cc(NC(=O)Cn2nc(C)c(S(=O)(=O)N3CCCCC3)c2C)no1 [Compound Z92593810]
-11% | O=C(OCc1cccc(C(F)(F)F)c1)c1n[nH]c(=O)c2ccccc12 [Compound Z94561070]
3% | O=C1COc2ccc(C(=O)/C=C/c3ccc(OC(F)F)cc3)cc2N1 [Compound Z94572736]
3% | Cc1nn(-c2ccccc2)c(Cl)c1CN1CCN(S(=O)(=O)c2ccccc2C(F)(F)F)CC1 [Compound Z94609806]
6% | O=C(NCc1ccncc1)c1cnn(-c2ccc(Cl)cc2)c1C(F)(F)F [Compound Z94739043]
3% | COc1ccc(-c2cc(-c3cc4ccccc4o3)nc3c2cnn3C(C)C)cc1 [Compound Z94751514]
32% | O=C1Nc2ccccc2/C1=C\c1cnn(-c2ccccc2)c1 [Compound Z95045593]
4% | O=C1Nc2cc(Cl)ccc2/C1=C\c1cnn(-c2ccccc2)c1 [Compound Z95046696]
-11% | O=C(O)/C(=C\c1cccc(C(F)(F)F)c1)Sc1nnc(-c2ccco2)o1 [Compound Z95207137]
14% | CCCn1c(/C(Cl)=C/c2ccc(F)c(F)c2)nc2cc(S(=O)(=O)N3CCOCC3)ccc21 [Compound Z95254533]
-1% | CC(C)C(NC(=O)c1ccc(CNC(N)=O)cc1)c1ccccc1 (stereo not shown) [Compound Z96018682]
1% | O=C(Nc1ccccc1)C1CCN(C(=O)C2CCOCC2)CC1 [Compound Z96031302]
-8% | CCN(CCCNC(=O)c1cn(-c2ccccc2)nc1-c1cccnc1)c1ccccc1 [Compound Z96041573]
9% | COc1ccc(OC)c(C2CCCN2C(=O)CSc2nnc(Nc3ccccc3C)s2)c1 (stereo not shown) [Compound Z96342510]
30% | CCCc1cc(=O)oc2cc(OCC(=O)N(C)CC3COc4ccccc4O3)ccc12 (stereo not shown) [Compound Z97092537]
-3% | COc1ccc(-n2c(=O)c3ccccc3n3c(SCC(=O)NC(C)CCCC(C)C)nnc23)cc1 (stereo not shown) [Compound Z97290306]
15% | CCN(Cc1ccc2c(c1)OCCO2)C(=O)CSc1nnc(C(C)N(C)C)n1-c1ccc(F)cc1 (stereo not shown) [Compound Z97565837]
5% | O=C(CSc1nnc(-c2cccnc2)n1C1CC1)c1ccc2c(c1)OCCCO2 [Compound Z98268667]
17% | COc1ccc(C(=O)N[C@@H]2C(=O)Nc3c(c(C)nn3C)[C@H]2c2cccc(C(F)(F)F)c2)cc1OC [Compound Z98361471]
22% | Cc1ccc(-n2c(SCC(=O)c3cc(C)n(CC4CCCO4)c3C)nnc2N2CCOCC2)cc1 (stereo not shown) [Compound Z98369603]
11% | Cc1ccc(-n2c(SCC(=O)c3ccc(NC(=O)C(C)(C)C)cc3)nnc2N2CCOCC2)cc1 [Compound Z98370329]
13% | O=C(O)c1cc(-c2cccnc2)nc2c1cnn2Cc1cccnc1 [Compound Z98638708]
10% | Cc1nnc(SCC(=O)c2cc3cc(Cl)ccc3o2)n1C1CC1 [Compound Z98941608]
5% | COc1ccccc1NC(=O)c1ccc(NC(=O)COc2ccc(-c3nc(C)cs3)cc2)cc1 [Compound Z99004386]
8% | O=C(Cc1csc(-c2ccsc2)n1)Nc1ccc2nc(N3CCOCC3)sc2c1 [Compound Z99468124]
